Values after ≈ are worked out from the molar mass of the structure shown.
System: T. gondii RH-GFP
Assay: not given
Parameters: method as in PMID 31022878, PMID 30744161
Conditions: CC30/IC50Tg; thiosemicarbazides 1a–27a; cited from earlier work

Row | SMILES | SI
1 | CC(=O)c1cccc(NC(=S)NNC(=O)c2[nH]cnc2C)c1 [23a] | 2.16
2 | CCOc1ccc(NC(=S)NNC(=O)c2[nH]cnc2C)cc1 [22a] | 5.25
3 | Cc1ccccc1NC(=S)NNC(=O)c1[nH]cnc1C [14a] | 1.92
4 | CCN(CC)c1ccc(NC(=S)NNC(=O)c2[nH]cnc2C)cc1 [26a] | 2.46
5 | COc1ccc(NC(=S)NNC(=O)c2nc[nH]c2C)cc1 [20a] | 3.41
6 | Cc1nc[nH]c1C(=O)NNC(=S)Nc1ccc(N(C)C)cc1 [25a] | 0.68
7 | Cc1nc[nH]c1C(=O)NNC(=S)Nc1c(C(C)C)cccc1C(C)C [24a] | 1.95
8 | Cc1nc[nH]c1C(=O)NNC(=S)Nc1ccc(Cl)cc1 [6a] | 1.28
9 | Cc1ccc(NC(=S)NNC(=O)c2[nH]cnc2C)cc1 [16a] | 0.60
10 | Cc1nc[nH]c1C(=O)NNC(=S)Nc1cc(F)ccc1F [13a] | 2.95
11 | Cc1cccc(NC(=S)NNC(=O)c2[nH]cnc2C)c1 [15a] | 1.35
12 | Cc1nc[nH]c1C(=O)NNC(=S)Nc1ccc(I)cc1 [12a] | 3.25
13 | Cc1nc[nH]c1C(=O)NNC(=S)Nc1cccc(I)c1 [11a] | 8.31
14 | Cc1nc[nH]c1C(=O)NNC(=S)Nc1ccccc1Br [7a] | 7.43

Same assay, conditions: T. gondii infected Hs27 cells; thiosemicarbazides 1a–27a; cited from earlier work

Row | SMILES | IC50Tg
15 | CC(=O)c1cccc(NC(=S)NNC(=O)c2[nH]cnc2C)c1 [23a] | 95.50 µg/mL (≈ 301 µM)
16 | CCOc1ccc(NC(=S)NNC(=O)c2[nH]cnc2C)cc1 [22a] | 95.28 µg/mL (≈ 298 µM)
17 | Cc1ccccc1NC(=S)NNC(=O)c1[nH]cnc1C [14a] | ∼150.31 µg/mL
18 | CCN(CC)c1ccc(NC(=S)NNC(=O)c2[nH]cnc2C)cc1 [26a] | 25.70 µg/mL (≈ 74.2 µM)
19 | COc1ccc(NC(=S)NNC(=O)c2nc[nH]c2C)cc1 [20a] | 113.99 µg/mL (≈ 373 µM)
20 | Cc1nc[nH]c1C(=O)NNC(=S)Nc1ccc(N(C)C)cc1 [25a] | ∼164.70 µg/mL
21 | Cc1nc[nH]c1C(=O)NNC(=S)Nc1c(C(C)C)cccc1C(C)C [24a] | 97.72 µg/mL (≈ 272 µM)
22 | Cc1nc[nH]c1C(=O)NNC(=S)Nc1ccc(Cl)cc1 [6a] | 73.37 µg/mL (≈ 237 µM)
23 | Cc1nc[nH]c1C(=O)NNC(=S)Nc1cccc(Cl)c1 [5a] | 25.70 µg/mL (≈ 83 µM)
24 | Cc1ccc(NC(=S)NNC(=O)c2[nH]cnc2C)cc1 [16a] | ∼57.58 µg/mL
25 | COc1ccc(NC(=S)NNC(=O)c2[nH]cnc2C)cc1OC [21a] | ∼174.98 µg/mL
26 | Cc1nc[nH]c1C(=O)NNC(=S)Nc1cc(F)ccc1F [13a] | 53.7 µg/mL (≈ 172 µM)
27 | Cc1cccc(NC(=S)NNC(=O)c2[nH]cnc2C)c1 [15a] | 37.15 µg/mL (≈ 128 µM)
28 | Cc1nc[nH]c1C(=O)NNC(=S)Nc1ccc(I)cc1 [12a] | 22.01 µg/mL (≈ 54.9 µM)
29 | Cc1nc[nH]c1C(=O)NNC(=S)Nc1cccc(I)c1 [11a] | 10.3 µg/mL (≈ 25.7 µM)
30 | Cc1nc[nH]c1C(=O)NNC(=S)Nc1ccccc1Br [7a] | 27.65 µg/mL (≈ 78.1 µM)

System: T. gondii RH-GFP
Assay: Antiparasitic assay: T. gondii RH-GFP proliferation in Hs27 cells
Type: cell-based, Toxoplasma gondii
Conditions: Toxoplasma gondii, HS27, 96 h, read-out: IC50Tg

Row | SMILES | IC50 [µg/mL]
31 | COc1cc(Cc2cnc(N)nc2N)cc(OC)c1OC [TRI, trimethoprim, reference compound] | 20.9 (≈ 72.1 µM)
32 | Nc1ccc(S(=O)(=O)Nc2ncccn2)cc1 [SDZ, sulfadiazine] | 4860 (≈ 19400 µM)

Same assay, conditions: Toxoplasma gondii; T. gondii RH-GFP in Hs27 cells, 96 h; values above highest tested concentration extrapolated; read-out: IC50Tg

Row | SMILES | IC50 [µg/mL]
33 | Cc1nc[nH]c1-c1n[nH]c(=S)n1-c1ccc(F)cc1 [3b] | 206 (≈ 748 µM)
34 | Cc1nc[nH]c1-c1n[nH]c(=S)n1-c1ccccc1F [1b] | 220 (≈ 799 µM)
35 | Cc1ccc(-n2c(-c3[nH]cnc3C)n[nH]c2=S)cc1 [16b] | 110 (≈ 406 µM)
36 | CCc1nc(N)nc(N)c1-c1ccc(Cl)cc1 [PYR, pyrimethamine] | 1.79 (≈ 7.2 µM)

Same assay, conditions: selectivity index, CC30 (L929)/IC50Tg

Row | SMILES | SI
37 | Cc1nc[nH]c1-c1n[nH]c(=S)n1-c1ccc(F)cc1 [3b] | 0.55
38 | Cc1nc[nH]c1-c1n[nH]c(=S)n1-c1ccccc1F [1b] | 5.78
39 | Cc1ccc(-n2c(-c3[nH]cnc3C)n[nH]c2=S)cc1 [16b] | 10.11
40 | COc1cc(Cc2cnc(N)nc2N)cc(OC)c1OC [TRI, trimethoprim, reference compound] | 16.07
41 | CCc1nc(N)nc(N)c1-c1ccc(Cl)cc1 [PYR, pyrimethamine] | 6.34
42 | Nc1ccc(S(=O)(=O)Nc2ncccn2)cc1 [SDZ, sulfadiazine] | 0.44

System: mouse fibroblasts L929 cells
Assay: not given
Parameters: method as in PMID 31022878, PMID 30744161
Conditions: thiosemicarbazides 1a–27a; cited from earlier work

Row | SMILES | CC30 [µg/mL]
43 | CC(=O)c1cccc(NC(=S)NNC(=O)c2[nH]cnc2C)c1 [23a] | 206.54 (≈ 651 µM)
44 | CCOc1ccc(NC(=S)NNC(=O)c2[nH]cnc2C)cc1 [22a] | 500 (≈ 1570 µM)
45 | Cc1ccccc1NC(=S)NNC(=O)c1[nH]cnc1C [14a] | 288.4 (≈ 997 µM)
46 | CCN(CC)c1ccc(NC(=S)NNC(=O)c2[nH]cnc2C)cc1 [26a] | 63.1 (≈ 182 µM)
47 | COc1ccc(NC(=S)NNC(=O)c2nc[nH]c2C)cc1 [20a] | 389.05 (≈ 1270 µM)
48 | Cc1nc[nH]c1C(=O)NNC(=S)Nc1ccc(N(C)C)cc1 [25a] | 112.2 (≈ 352 µM)
49 | Cc1nc[nH]c1C(=O)NNC(=S)Nc1c(C(C)C)cccc1C(C)C [24a] | 190.55 (≈ 530 µM)
50 | Cc1nc[nH]c1C(=O)NNC(=S)Nc1ccc(Cl)cc1 [6a] | 94.12 (≈ 304 µM)
51 | Cc1nc[nH]c1C(=O)NNC(=S)Nc1cccc(Cl)c1 [5a] | 96.78 (≈ 312 µM)
52 | Cc1ccc(NC(=S)NNC(=O)c2[nH]cnc2C)cc1 [16a] | 34.67 (≈ 120 µM)
53 | COc1ccc(NC(=S)NNC(=O)c2[nH]cnc2C)cc1OC [21a] | >500
54 | Cc1nc[nH]c1C(=O)NNC(=S)Nc1cc(F)ccc1F [13a] | 158.49 (≈ 509 µM)
55 | Cc1cccc(NC(=S)NNC(=O)c2[nH]cnc2C)c1 [15a] | 50.12 (≈ 173 µM)
56 | Cc1nc[nH]c1C(=O)NNC(=S)Nc1ccc(I)cc1 [12a] | 71.58 (≈ 178 µM)
57 | Cc1nc[nH]c1C(=O)NNC(=S)Nc1cccc(I)c1 [11a] | 85.57 (≈ 213 µM)
58 | Cc1nc[nH]c1C(=O)NNC(=S)Nc1ccccc1Br [7a] | 205.31 (≈ 580 µM)

System: mouse fibroblasts L929 cells
Assay: Cell viability assay (MTT, ISO 10993-5)
Type: cell-based
Conditions: 24 h, highest dilution causing 30% or higher destruction of cells
Method: Culture medium RPMI 1640, without phenol red (Biowest, Nuaille, France) supplemented with 10% FBS, 2 mM […] penicillin, 100 μg/mL streptomycin were used. Briefly, 1 × 10^4/well of L929 cells were placed in 96-well plates and incubated for 24 h at 37 °C and 10% CO2. Afterwards, the old culture medium was replaced with 100 μL of the compound, drug or inhibitor, diluted in culture medium and the cells treated for 24 h. Additionally, cells were treated with 0.03-4.0% concentration of DMSO as the solvent (data not shown). Then, 50 μL of 1 mg/mL of MTT solution in RPMI 1640 without phenol red was added to each well and incubated for 2 h at 37 °C and 10% CO2. Next, cell culture medium was aspirated carefully and 150 μL of DMSO was added to each well, and the plates were gently mixed. Then, 25 μL 0.1 M glycine buffer (pH 10.5) (Sigma-Aldrich) was added. The optical density at 570 nm using a multi-mode microplate reader SpectraMax® i3 (Syngen, Taipei City, Taiwan) was recorded. The results were expressed as a percentage of viability compared to untreated cells. All experiments were performed in triplicate. The reported methyl thiazolyltetrazole (MTT) method was used to study in vitro cytotoxic profile of the s-triazoles 1b-27b to the host cells (L929). Experiments were performed in accordance with the international standard IS0-10993-5:2009. […] The data for acyclic precursors 1a-27a are also included for comparison[39]^,[40].

Row | SMILES | CC30 [µg/mL]
59 | Cc1nc[nH]c1-c1n[nH]c(=S)n1-c1ccc(F)cc1 [3b] | 113.71 (≈ 413 µM)
60 | Cc1nc[nH]c1-c1n[nH]c(=S)n1-c1ccccc1F [1b] | 1270.57 (≈ 4620 µM)
61 | Cc1ccc(-n2c(-c3[nH]cnc3C)n[nH]c2=S)cc1 [16b] | 1113.53 (≈ 4100 µM)
62 | COc1cc(Cc2cnc(N)nc2N)cc(OC)c1OC [TRI, trimethoprim, reference compound] | 336.20 (≈ 1160 µM)
63 | CCc1nc(N)nc(N)c1-c1ccc(Cl)cc1 [PYR, pyrimethamine] | 11.37 (≈ 45.7 µM)
64 | Nc1ccc(S(=O)(=O)Nc2ncccn2)cc1 [SDZ, sulfadiazine] | 2161.72 (≈ 8640 µM)

Reference: article PMC9518248, “Inhibition of Toxoplasma gondii by 1,2,4-triazole-based compounds: marked improvement in selectivity relative to the standard therapy pyrimethamine and sulfadiazine” (Journal of Enzyme Inhibition and Medicinal Chemistry, 2022)
